# Data as given in PubChem BioAssay (NCI).
#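 Compound exposure: 48 hours, 5 concentrations, 96-well plates. GI50 marks 50% less growth. TGI is the concentration that stops growth completely.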
# How the values were obtained:
# Experiment in all cases: NCI anticancer screen, dose series, 48 h
# SK-MEL-2 melanoma = system: SK-MEL-2 melanoma
# HOP-62 NSCLC = system: HOP-62 NSCLC
# KM12 colon = system: KM12 colon
# 786-0 renal = system: 786-0 renal
# UACC-257 melanoma = system: UACC-257 melanoma
# NCI/ADR-RES ovarian = system: NCI/ADR-RES ovarian
# IGROV1 ovarian = system: IGROV1 ovarian
# NCI-H522 lung = system: NCI-H522 lung
# HOP-92 NSCLC = system: HOP-92 NSCLC
# HS 578T breast = system: HS 578T breast
# T-47D breast = system: T-47D breast
# HCC-2998 colon = system: HCC-2998 colon
# HCT-116 colon = system: HCT-116 colon
# MALME-3M melanoma = system: MALME-3M melanoma
# OVCAR-8 ovarian = system: OVCAR-8 ovarian
# MOLT-4 leukemia = system: MOLT-4 leukemia
# SK-OV-3 ovarian = system: SK-OV-3 ovarian
# RXF 393 renal = system: RXF 393 renal
# BT-549 breast = system: BT-549 breast
# MDA-MB-435 = system: MDA-MB-435
# EKVX NSCLC = system: EKVX NSCLC
# SNB-19 CNS = system: SNB-19 CNS
# NCI-H460 lung = system: NCI-H460 lung
# K-562 leukemia = system: K-562 leukemia
# SF-539 CNS = system: SF-539 CNS
# M14 melanoma = system: M14 melanoma
# OVCAR-5 ovarian = system: OVCAR-5 ovarian
# MDA-MB-231 breast = system: MDA-MB-231 breast
# CAKI-1 renal = system: CAKI-1 renal
# COLO 205 colon = system: COLO 205 colon
# TK-10 renal = system: TK-10 renal
# CCRF-CEM leukemia = system: CCRF-CEM leukemia
# PC-3 prostate = system: PC-3 prostate
# SF-268 CNS = system: SF-268 CNS
# SNB-75 CNS = system: SNB-75 CNS
# HL-60(TB) leukemia = system: HL-60(TB) leukemia
# UO-31 renal = system: UO-31 renal
# HT29 colon = system: HT29 colon
# A549 NSCLC = system: A549 NSCLC
# SK-MEL-28 melanoma = system: SK-MEL-28 melanoma
# MCF7 breast = system: MCF7 breast
# NCI-H23 lung = system: NCI-H23 lung
# SF-295 CNS = system: SF-295 CNS
# SN12C renal = system: SN12C renal
# NCI-H226 lung = system: NCI-H226 lung
# ACHN renal = system: ACHN renal
# SR leukemia = system: SR leukemia
# SK-MEL-5 melanoma = system: SK-MEL-5 melanoma
# UACC-62 melanoma = system: UACC-62 melanoma
# OVCAR-4 ovarian = system: OVCAR-4 ovarian
# DU-145 prostate = system: DU-145 prostate
# SW-620 colon = system: SW-620 colon
# A498 renal = system: A498 renal
# OVCAR-3 ovarian = system: OVCAR-3 ovarian
smiles,measurement,setting,value
CC12OC(C(=O)C13CC3)C1C(=O)c3ccccc3C(=O)C12 (stereo not given),GI50,SK-MEL-2 melanoma,47.1 µM
same,TGI,SK-MEL-2 melanoma,> 100 µM
same,GI50,HOP-62 NSCLC,27.8 µM
same,TGI,HOP-62 NSCLC,80 µM
same,GI50,KM12 colon,19.9 µM
same,TGI,KM12 colon,52 µM
same,GI50,786-0 renal,18.2 µM
same,TGI,786-0 renal,37.6 µM
same,GI50,UACC-257 melanoma,27.7 µM
same,TGI,UACC-257 melanoma,68.8 µM
same,GI50,NCI/ADR-RES ovarian,24.5 µM
same,TGI,NCI/ADR-RES ovarian,77 µM
same,GI50,IGROV1 ovarian,23.1 µM
same,TGI,IGROV1 ovarian,65.9 µM
same,GI50,NCI-H522 lung,53.3 µM
same,TGI,NCI-H522 lung,> 100 µM
same,GI50,HOP-92 NSCLC,21.8 µM
same,TGI,HOP-92 NSCLC,60.7 µM
same,GI50,HS 578T breast,22.6 µM
same,TGI,HS 578T breast,63.9 µM
same,GI50,T-47D breast,24.4 µM
same,TGI,T-47D breast,> 100 µM
same,GI50,HCC-2998 colon,36.3 µM
same,TGI,HCC-2998 colon,> 100 µM
same,GI50,HCT-116 colon,34 µM
same,TGI,HCT-116 colon,> 100 µM
same,GI50,MALME-3M melanoma,27.9 µM
same,TGI,MALME-3M melanoma,87.1 µM
same,GI50,OVCAR-8 ovarian,20.3 µM
same,TGI,OVCAR-8 ovarian,48.4 µM
same,GI50,MOLT-4 leukemia,32 µM
same,TGI,MOLT-4 leukemia,> 100 µM
same,GI50,SK-OV-3 ovarian,25.3 µM
same,TGI,SK-OV-3 ovarian,74.8 µM
same,GI50,RXF 393 renal,10 µM
same,TGI,RXF 393 renal,24.9 µM
same,GI50,BT-549 breast,36.2 µM
same,TGI,BT-549 breast,76.9 µM
same,GI50,MDA-MB-435,41.4 µM
same,TGI,MDA-MB-435,> 100 µM
same,GI50,EKVX NSCLC,4.48 µM
same,TGI,EKVX NSCLC,38.4 µM
same,GI50,SNB-19 CNS,36.4 µM
same,TGI,SNB-19 CNS,> 100 µM
same,GI50,NCI-H460 lung,29.9 µM
same,TGI,NCI-H460 lung,> 100 µM
same,GI50,K-562 leukemia,36.8 µM
same,TGI,K-562 leukemia,> 100 µM
same,GI50,SF-539 CNS,24.2 µM
same,TGI,SF-539 CNS,54.6 µM
same,GI50,M14 melanoma,41 µM
same,TGI,M14 melanoma,> 100 µM
same,GI50,OVCAR-5 ovarian,47.4 µM
same,TGI,OVCAR-5 ovarian,> 100 µM
same,GI50,MDA-MB-231 breast,46.8 µM
same,TGI,MDA-MB-231 breast,> 100 µM
same,GI50,CAKI-1 renal,21.6 µM
same,TGI,CAKI-1 renal,38.5 µM
same,GI50,COLO 205 colon,89 µM
same,TGI,COLO 205 colon,> 100 µM
same,GI50,TK-10 renal,22.8 µM
same,TGI,TK-10 renal,58.8 µM
same,GI50,CCRF-CEM leukemia,13.9 µM
same,TGI,CCRF-CEM leukemia,42.5 µM
same,GI50,PC-3 prostate,19.8 µM
same,TGI,PC-3 prostate,52.9 µM
same,GI50,SF-268 CNS,19.2 µM
same,TGI,SF-268 CNS,46.2 µM
same,GI50,SNB-75 CNS,77.5 µM
same,TGI,SNB-75 CNS,> 100 µM
same,GI50,HL-60(TB) leukemia,26.8 µM
same,TGI,HL-60(TB) leukemia,81.6 µM
same,GI50,UO-31 renal,32.8 µM
same,TGI,UO-31 renal,> 100 µM
same,GI50,HT29 colon,48.7 µM
same,TGI,HT29 colon,> 100 µM
same,GI50,A549 NSCLC,37.2 µM
same,TGI,A549 NSCLC,> 100 µM
same,GI50,SK-MEL-28 melanoma,21.6 µM
same,TGI,SK-MEL-28 melanoma,62.1 µM
same,GI50,MCF7 breast,21.2 µM
same,TGI,MCF7 breast,78.6 µM
same,GI50,NCI-H23 lung,29.5 µM
same,TGI,NCI-H23 lung,> 100 µM
COc1cc2cc(Oc3ccc(NC(=O)Nc4cccc(C(F)(F)F)c4)cc3)c(C)nc2cc1OCCN1CCCCC1,GI50,KM12 colon,1.72 µM
same,TGI,KM12 colon,3.3 µM
same,GI50,786-0 renal,1.72 µM
same,TGI,786-0 renal,3.21 µM
same,GI50,UACC-257 melanoma,1.86 µM
same,TGI,UACC-257 melanoma,3.48 µM
same,GI50,SF-295 CNS,1.8 µM
same,TGI,SF-295 CNS,3.24 µM
same,GI50,NCI-H522 lung,1.67 µM
same,TGI,NCI-H522 lung,3.33 µM
same,GI50,HOP-92 NSCLC,1.08 µM
same,TGI,HOP-92 NSCLC,2.34 µM
same,GI50,SN12C renal,1.66 µM
same,TGI,SN12C renal,3.15 µM
same,GI50,NCI-H226 lung,1.92 µM
same,TGI,NCI-H226 lung,4.62 µM
same,GI50,MALME-3M melanoma,1.63 µM
same,TGI,MALME-3M melanoma,3.07 µM
same,GI50,SK-OV-3 ovarian,2.06 µM
same,TGI,SK-OV-3 ovarian,3.8 µM
same,GI50,ACHN renal,1.69 µM
same,TGI,ACHN renal,3.06 µM
same,GI50,BT-549 breast,1.78 µM
same,TGI,BT-549 breast,3.28 µM
same,GI50,MDA-MB-435,1.59 µM
same,TGI,MDA-MB-435,2.94 µM
same,GI50,EKVX NSCLC,1.51 µM
same,TGI,EKVX NSCLC,2.92 µM
same,GI50,SR leukemia,0.479 µM
same,TGI,SR leukemia,2.52 µM
same,GI50,SK-MEL-5 melanoma,1.71 µM
same,TGI,SK-MEL-5 melanoma,3.16 µM
same,GI50,SNB-19 CNS,1.66 µM
same,TGI,SNB-19 CNS,3.1 µM
same,GI50,UACC-62 melanoma,1.75 µM
same,TGI,UACC-62 melanoma,3.15 µM
same,GI50,NCI-H460 lung,1.83 µM
same,TGI,NCI-H460 lung,3.37 µM
same,GI50,K-562 leukemia,0.802 µM
same,TGI,K-562 leukemia,3.11 µM
same,GI50,OVCAR-4 ovarian,1.66 µM
same,TGI,OVCAR-4 ovarian,3.39 µM
same,GI50,SF-539 CNS,1.67 µM
same,TGI,SF-539 CNS,3.05 µM
same,GI50,M14 melanoma,1.79 µM
same,TGI,M14 melanoma,3.27 µM
same,GI50,OVCAR-5 ovarian,1.87 µM
same,TGI,OVCAR-5 ovarian,3.29 µM
same,GI50,MDA-MB-231 breast,1.36 µM
same,TGI,MDA-MB-231 breast,2.73 µM
same,GI50,CAKI-1 renal,1.4 µM
same,TGI,CAKI-1 renal,2.82 µM
same,GI50,TK-10 renal,1.83 µM
same,TGI,TK-10 renal,3.36 µM
same,GI50,PC-3 prostate,1.41 µM
same,TGI,PC-3 prostate,2.77 µM
same,GI50,DU-145 prostate,1.68 µM
same,TGI,DU-145 prostate,3.06 µM
same,GI50,SNB-75 CNS,1.15 µM
same,TGI,SNB-75 CNS,2.37 µM
same,GI50,HL-60(TB) leukemia,1.94 µM
same,TGI,HL-60(TB) leukemia,3.74 µM
same,GI50,UO-31 renal,1.45 µM
same,TGI,UO-31 renal,2.79 µM
same,GI50,SW-620 colon,1.98 µM
same,TGI,SW-620 colon,3.6 µM
same,GI50,SK-MEL-28 melanoma,1.76 µM
same,TGI,SK-MEL-28 melanoma,3.14 µM
same,GI50,A498 renal,1.45 µM
same,TGI,A498 renal,2.9 µM
same,GI50,MCF7 breast,1.63 µM
same,TGI,MCF7 breast,3.33 µM
same,GI50,NCI-H23 lung,1.7 µM
same,TGI,NCI-H23 lung,3.26 µM
same,GI50,OVCAR-3 ovarian,1.71 µM
same,TGI,OVCAR-3 ovarian,3.15 µM
